Where two headings read alike, the source gives them in different places.
What was measured:
[1] = tested on: ants (persistent ant trails); test: Ant control field trial (ant trail counts after barrier spray); type: in vivo
Excerpt: The purpose of this example was to consider whether combinations of imidacloprid and adjuvant, believed acting as free radical stabilizers, is effective at controlling ant populations. The general methodology used in this analysis first involved locating a site with persistent ant trails; e.g., trails over surfaces of buildings, at structural guidelines (expansion joints, utility lines, and the like), or points where ants emerge from beneath or behind a structural element. A point of observation was fixed along the trail or point of emergence as the individual plot(s) for observations of the effects of treatment on ant activity. The near environment (structural substrate, mulch beds, ground, and the like) was sprayed to form a continuous barrier that intercepts the trailing ants in a barrier ca. 2 ft up and 2 ft out from foundation wall, and extending 2 to 3 feet on either side of the ant trail. After treatment, the observers returned to observe ant activity and count ant traffic at intervals after treatment. The evaluations were continued until the control failed, or as long as was practical. All formulations were diluted in water before treatment. Application rates, in terms of mg AI per sq. m., were as indicated in the tables. deltamethrin served as a positive control. All treatments were replicated in four plots.

[2] = tested on: bait averse/resistant German cockroach (T-164 strain); test: Knockdown/mortality of male cockroaches under continuous exposure on treated glazed tile; type: in vivo, Blattella germanica; parameters: Average % Knockdown & Mortality after 5 hr / Average % Knockdown & Mortality after 30 min: concentration or dose not given beside the values; conditions: glazed tile
[3] = tested on: Blattella germanica, susceptible strain; test: Contact efficacy against cockroaches on glazed tiles (acetone solutions); type: in vivo; conditions: mean of three replicates; for mortality at 60 mg/m2: imidacloprid 0.1%, 60 mg/m^2, glazed tile; for mortality at 310 mg/m2: imidacloprid 0.5%, 310 mg/m^2, glazed tile; for mortality at 620 mg/m2: imidacloprid 1%, 620 mg/m^2, glazed tile
Protocol: Male Blattella germanica, susceptible strain, were used. A solution of the active ingredient in acetone pipetted onto the corresponding tile on an area of 12.5 cm×12.5 cm.
One day later, a glass ring (diameter 9.5 cm, height 5.5 cm) inner wall treated with talcum was placed on the tile and five male German cockroaches were introduced. Knock down and mortality, respectively, were evaluated after 30′, 1 h, 3 h and 1 d. A water soaked cotton pad was added after 3 hours.
Each trial consisted of three replicates of which the mean values are calculated.

[4] = tested on: bait averse/resistant German cockroach (IHOP strain), Blattella germanica; test: Knockdown/mortality of male cockroaches under continuous exposure on treated glazed tile; type: in vivo; conditions: Table 28, aqueous deltamethrin/adjuvant, IHOP strain
Protocol: Treatments were allowed to dry overnight. […] Treatments were replicated a minimum of three times. Evaluations for cockroach knockdown/mortality were made at various intervals for 1 hour and at 24 hours after exposure.
Treatments were allowed to dry overnight. […] Evaluations for cockroach knockdown/mortality were made at various intervals and at 60 minutes after exposure.
Treatments were allowed to dry overnight. […] Treatments were replicated a minimum of three times.

[5] = tested on: Culex quinquefasciatus mosquito; test: USDA Petri Dish Method, 3 min exposure to dipped fiberglass window screen; type: in vivo; conditions: Table 29, aqueous deltamethrin/adjuvant
Protocol: MATERIALS AND METHODS: Aqueous solutions of 1% deltamethrin with and without adjuvant were prepared using product sold under the tradename Suspend® SC. […] Pre-cut fiberglass screen (5″×5″, or 161.3 cm^2) were dipped in each treatment solution and excessive solution was allowed to drain completely. Weight of the solution coated on the screen was then determined. The treated screen was then allowed to air-dry overnight. USDA Petri Dish Method was used as initial screening protocol. Twenty, 4-6 day old female Culex quinquefasciatus were exposed to treated window screen for 3 minutes and then moved onto a clean untreated white paper index card. Treatments were replicated a minimum of three times. Mosquito knockdown was evaluated at 3 minute intervals for the first 15 minutes and then at 5 minute intervals for the remainder of an hour. A small cotton ball soaked in sucrose solution was added on the screen top of the petri-dish as a drinking source. Mortality was evaluated at 24 hours after exposure.

[6] = 0.5 h, read-out: Average % knockdown & mortality after 30 min
[7] = 1 h, read-out: Average % knockdown & mortality after 60 min
[8] = 3 h, read-out: Average % knockdown & mortality after 3 hr
[9] = 24 h, read-out: Average % knockdown & mortality after 24 hr

Q: For `CC1(C)[C@H](C(=O)O[C@H](C#N)c2cccc(Oc3ccccc3)c2)[C@@H]1C=C(Br)Br` [deltamethrin], which “reduction in ant activity, cross-trial average (relative to pretreatment counts)” value [1] is on record?
A: The value was 57.9%.

Q: Which results are given for `O=[N+]([O-])NC1=NCCN1Cc1ccc(Cl)nc1` [imidacloprid]?
A: reduction in ant activity, cross-trial average (relative to pretreatment counts) [1]: 34.1%; Average % Knockdown & Mortality after 45 min ([2]; 45 min, Table 24, imidacloprid/dibutyl sebacate (DBS) in acetone, T-164 strain): 0%; Average % Knockdown & Mortality after 3 hr ([2]; 3 hr, Table 23, imidacloprid/tritylchloride in acetone, T-164 strain): 7%; Average % Knockdown & Mortality after 15 min ([2]; Table 5 (Ex. 2), continuous exposure): 0%; Average % Knockdown & Mortality after 15 min ([2]; Table 6 (Ex. 3), continuous exposure): 0%; Average % Knockdown & Mortality after 15 min ([2]; Table 9 (Ex. 6), continuous exposure): 0%; Average % Knockdown & Mortality after 15 min ([2]; Table 11 (Ex. 8), continuous exposure): 0%; Average % Knockdown & Mortality after 4 hr ([2]; Table 13 (Ex. 10), continuous exposure): 0%; Average % Knockdown & Mortality after 4 hr ([2]; Table 15 (Ex. 12), continuous exposure): 20%; Average % Knockdown & Mortality after 5 hr ([2]; Table 17 (Ex. 14), continuous exposure): 19%; Average % Knockdown & Mortality after 4 hr ([2]; Table 18 (Ex. 15), continuous exposure): 47%; Average % Knockdown & Mortality after 3 hr ([2]; Table 21 (Ex. 18), continuous exposure): 7%; mortality at 60 mg/m2 [3, 6]: 0%; mortality at 310 mg/m2 [3, 6]: 0%; mortality at 620 mg/m2 [3, 6]: 0%; mortality at 60 mg/m2 [3, 7]: 0%; mortality at 310 mg/m2 [3, 7]: 0%; mortality at 620 mg/m2 [3, 7]: 0%; mortality at 60 mg/m2 [3, 8]: 20%; mortality at 310 mg/m2 [3, 8]: 0%; mortality at 620 mg/m2 [3, 8]: 13%; mortality at 60 mg/m2 [3, 9]: 40%; mortality at 310 mg/m2 [3, 9]: 0%; mortality at 620 mg/m2 [3, 9]: 40%

Q: What does the source list for `CC1(C)[C@H](C(=O)O[C@H](C#N)c2cccc(Oc3ccccc3)c2)[C@@H]1C=C(Br)Br` [deltamethrin (1%)]?
A: Average % Mortality after 10 min ([4]; 10 min): 20%; Average % Mortality after 30 min ([4]; 30 min): 93%; Average % Mortality after 60 min ([4]; 60 min): 100%; Average % Mortality after 24 hr ([4]; 24 hr): 100%; Average % Knockdown & Mortality after 15 min ([5]; 15 min): 0%; Average % Knockdown & Mortality after 30 min ([5]; 30 min): 2%; Average % Knockdown & Mortality after 45 min ([5]; 45 min): 3%; Average % Knockdown & Mortality after 60 min ([5]; 60 min): 8%; Average % Knockdown & Mortality after 4 hr ([5]; 4 hr): 52%; Average % Knockdown & Mortality after 24 hr ([5]; 24 hr): 86%

Reference: patent publication US9028856B2, “Synergistic pesticide compositions” (priority 2008, dated 2015)
